B1: FasL: Soluble recombinant human FasL (protein, UniProt P48023 103-281, looked up)
extracellular domain: QLFHLQKELAELRESTSQMHTASSLEKQIGHPSPPPEKKELRKVAHLTGKSNSRSMPLEWEDTYGIVLLSGVKYKKGGLVINETGLYFVYSKVYFRGQSCNNLPLSHKVYMRNSKYPQDLVMMEGKMMSYCTTGQMWARSSYLGAVFNLTSADHLYVNVSELSLVNFEESQTFFGLYKL
modifications: extracellular domain soluble recombinant

Key:
[1] = test system: α-SMA in CD148-deficient (Ptprj−/−) lung fibroblasts; assay: α-SMA western blot in CD148-deficient lung fibroblasts with PI3K/mTOR inhibitors; format: cell-based, mouse; conditions: CD148-deficient cells, TGF-β1 10 ng/ml; wortmannin 50 nM or rapamycin 1 μM, 24 h
Description: FIG. 3. CD148 deficiency enhances PI3K/Akt/mTOR signaling which results in low autophagy, high p62 expression in lung fibroblasts. (A) Mouse lung fibroblasts were isolated from Ptprj^fl/fl Col1a2^Cre-ER(T)+/0 mice (Ptprj−/−) and Col1a2^Cre-ER(T)+/0 mice (WT) and then treated with 4-OHT (1 μM) for 24 h. After 4-OHT treatment, cells were exposed to TGF-β1 (10 ng/ml) for 24 h. After stimulation, cells were harvested, and the expression of p-p85 (Tyr458), p-Akt (Ser473), pmTOR (Ser2448), p-p70 S6 kinase (Thr389), p-S6 ribosomal protein (Ser235/236) and CD148 (n=4 for each condition) in lysates was determined by Western immunoblotting and corresponding densitometry (ImageJ software). Data were normalized to corresponding dephospho-forms or GAPDH. (B) WT and Ptprj−/− cells were stimulated with TGF-β1 (10 ng/ml) for 24 h. Then cells were lysed and LC3-I and -II and p62 were measured by western blot (n=4). […] Then, autophagy flux was measured by LC3-II accumulation in the absence or presence of lysosomal acidification inhibitor chloroquine (25 μM) at 2, 4 and 6 h (n=4). […] LC3 puncta positive cells were quantified using ImageJ (D). […]
Polyacrylamide gel electrophoresis and immunoblotting were performed according to standard methods. […] The signals were detected by ECL (Thermo Fisher Scientific, Waltham, MA). […]

[2] = test system: Col1a1 expression in CD148-deficient (Ptprj−/−) lung fibroblasts; assay: Col1a1 qPCR in CD148-deficient lung fibroblasts with NF-κB inhibitor; format: cell-based, mouse; conditions: CD148-deficient cells, TGF-β1 10 ng/ml; Bay 11-7082 10 μM
Description: FIG. 4. CD148 deficiency enhances PI3K/Akt/mTOR signaling which results in enhanced NF-κB activation in lung fibroblasts. (A) WT and Ptprj−/− cells were stimulated with TGF-β1 (10 ng/ml) for 24 h. Cells were lysed and p-IKKα/β, p-IκB and IκB were measured by western blot (n=4). GAPDH was the standard. Bar graphs at right are the quantitation of corresponding proteins. (B) WT and Ptprj−/− cells were stimulated with TGF-β1 (10 ng/ml) for 24 h. Cells were subjected to cytosol and nuclear protein fractionation. The p65 (NF-κB subunit) nuclear translocation was measured by western blot (n=3). β-actin and PCNA were used as cytosolic and nuclear markers, respectively. Bar graphs at right are the quantitation of corresponding proteins. p65 cytosolic/nuclear ratio is shown (far right). Data are mean±s.e.m. *P<0.05, by Kurskal-Wallis non-parametric test (C-D) WT or Ptprj−/− cells were transfected with scr or shp62 (lentivirus). Cells were stimulated with TGF-β1 (10 ng/ml) in the presence or absence or wortmannin (wort, 50 nM) or rapamycin (rapa, 1 μM). At 24 h cells were harvested and subjected to qPCR for Col1a1 or Acta2 (n=5). […] Luciferase activity were measured as described in methods (n=4 or 7). […] (F) WT or Ptprj−/− cells were stimulated with TGF-β1 (10 ng/ml) in the presence or absence of the NF-κB inhibitor Bay 11-7082 (10 μM). mRNA levels of Col1a1 were measured by qPCR (n=5 for each condition). […]

[3] = test system: IPF-derived lung fibroblasts; assay: FasL-induced cell death (MTT cell viability); format: cell-based, human; conditions: FasL 100 and 200 ng/ml, 24 h
Description: FIG. 1. […] (A) CD148 protein expression levels were determined in lung homogenates from control (n=5) and IPF (n=5) patients. (Graphic) Densitometry (by ImageJ software). (B) Lung specimens from control (n=9) and IPF (n=10) patients were homogenized and subjected to total RNA isolation. Ptprj (CD148) mRNA levels were assessed using qPCR. (C) Single cell suspensions of control (n=6) and IPF (n=7) were enriched for fibroblasts. mRNA expression of CD148 in fibroblast-enriched cell populations were assessed using qPCR. (D) Representative fluorescence microscopy images of CD148 (Cy3, red), Vimentin (GFP, green) and DAPI (blue) in control (n=4) and IPF lung tissue (n=5). Scale bar=100 μm. […] CD148 fluorescence intensity was quantified by ImageJ. […] (E) CD148 protein levels were measured by western blot (n=3). (F) mRNA levels of fibronectin (Fn) and Collagen 1a1 (Col1a1) were measured using qPCR (n=5). […] After treatment, cell viability was determined using the MTT assay (n=5). […] Clusters labeled as fibroblast and myofibroblast were extracted from our previously published scRNA-seq data set and analysed using R-program. […] P values were calculated by Mann-Whitney unpaired test. (L) mRNA expression of CD148 in sorted AT1 and AT2 cells were assessed using qPCR. […] After treatment, cell viability was assessed with the MTT assay (n=4). […]
FIG. 6. […] (B) mRNA levels of Fn and Col1a1 were measured by qPCR (n=5). […]

Molecule	increase of a-SMA in response to TGF-β1 [1]	other results
COC[C@H]1OC(=O)c2coc3c2[C@@]1(C)C1=C(C3=O)[C@@H]2CCC(=O)[C@@]2(C)C[C@H]1OC(C)=O [wortmannin]	attenuated	–
CO[C@H]1C[C@@H]2CC[C@@H](C)[C@@](O)(O2)C(=O)C(=O)N2CCCC[C@H]2C(=O)O[C@H]([C@H](C)C[C@@H]2CC[C@@H](O)[C@H](OC)C2)CC(=O)[C@H](C)/C=C(\C)[C@@H](O)[C@@H](OC)C(=O)[C@H](C)C[C@H](C)/C=C/C=C/C=C/1C [rapamycin]	attenuated	–
Cc1ccc(S(=O)(=O)/C=C/C#N)cc1 [Bay 11-7082]	–	TGF-β1-dependent increase in Col1a1 expression [2]: inhibited
B1	–	cell death induced by Fas ligand [3]: resistant to cell death
